Measured values from paper PMC4891693, “Discovery of prenylated flavonoids with dual activity against influenza virus and Streptococcus pneumoniae” (Scientific Reports, 2016).
Converted amounts (≈) assume the structure as drawn. “And” between values parts separate entries of the source, which are not always exact repeats. Equal entries are not always repeated. “Also recorded” adds a separate entry of the source. Where two headings read alike, the source gives them in different places.

What was measured:
[1] = test system: human lung carcinoma cells (A549)
[2] = molecular target: influenza virus A/WSN/33 NA (Influenza A virus, UniProt P03470); test: biochemical
Sequence of influenza virus A/WSN/33 NA (P03470 whole entry, looked up): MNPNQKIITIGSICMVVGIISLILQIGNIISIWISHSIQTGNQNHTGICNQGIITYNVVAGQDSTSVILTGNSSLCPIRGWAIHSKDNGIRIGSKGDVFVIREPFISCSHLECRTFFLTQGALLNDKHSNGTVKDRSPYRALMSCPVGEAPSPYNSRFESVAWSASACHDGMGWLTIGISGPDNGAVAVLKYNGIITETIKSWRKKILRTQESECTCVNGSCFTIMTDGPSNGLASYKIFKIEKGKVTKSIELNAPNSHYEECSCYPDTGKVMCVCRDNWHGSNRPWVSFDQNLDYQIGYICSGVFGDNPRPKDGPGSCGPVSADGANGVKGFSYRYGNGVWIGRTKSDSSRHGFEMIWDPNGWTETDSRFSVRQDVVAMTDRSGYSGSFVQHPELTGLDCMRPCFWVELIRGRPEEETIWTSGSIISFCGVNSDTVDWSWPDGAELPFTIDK

[3] = test system: IAV Jena/8178/2009 (8178/09); test: microbe, parasite or virus in culture; format: cell-based, Influenza A virus; conditions: 48 h, read-out: IC50 of CPE IAV 8178/09
[4] = test system: Madin-Darby canine kidney (MDCK) cells
human erythrocytes [5] = test system: human erythrocytes
human erythrocytes [6] = test: Interference with hemagglutination in the viral HA assay
[7] = test system: NA of S. pneumoniae DSM20566 (precipitated bacterial proteins); test: Hemagglutination (HA)-based NA inhibition assay, bacterial; format: biochemical, Streptococcus pneumoniae; conditions: pure compounds; total protein of DSM20566; human erythrocytes; highest tested 100 μM
Description: Inhibition of pneumococcal NAs circumvents hemagglutination.

influenza virus A/WSN/33 = test: microbe, parasite or virus in culture; format: cell-based; conditions: read-out: IC50 of CPE assay (A/WSN/33)
[8] = test system: S. pneumoniae DSM20566 biofilm; test: Scanning electron microscopy of pneumococcal biofilm on glass slides; format: cell-based, Streptococcus pneumoniae; conditions: 10 μM, 7 days
[9] = test system: IAV 8178/09 in A549 cells; format: cell-based, Influenza A virus; conditions: 50 µM
human erythrocytes [10] = test system: human erythrocytes; remark: listed apart in the source
in vitro [11] = conditions: dog
in vitro [12] = conditions: human
[13] = Cytotoxicity in MDCK cells; conditions: dog
[14] = Cytotoxicity in A549 cells; conditions: human
[15] = test system: Madin-Darby canine kidney (MDCK) cells; test: Cytotoxicity in MDCK cells; conditions: read-out: CC50 in MDCK cells; pure compounds; 72 h; highest tested 100 μM
[16] = test system: human lung carcinoma cells (A549); test: Cytotoxicity in A549 cells; conditions: read-out: CC50 in A549 cells; pure compounds; 72 h; highest tested 100 μM
[17] = pure compounds, human erythrocytes, 2 h at 4 °C
[18] = treatment from 3 h after inoculation

Molecule | sample concentrations provoking induction of erythrocyte lysis in bacterial HA assay (human erythrocytes [5]) | sample concentrations provoking prevention of virus-induced hemagglutination in viral HA assay (human erythrocytes [6]; [17]) | MIC in HA assay against S. pneumoniae DSM20566 [7] | IC50 [2] [µM] | CC50 at 72 h (in vitro [11]) [µM] | sample concentrations provoking prevention of virus-induced hemagglutination in viral HA assay (human erythrocytes [6]) | CC50 at 72 h (in vitro [12]) [µM] | IC50 (influenza virus A/WSN/33; WSN, MDCK) [µM] | IC50 ([3]; Influenza A virus, MDCK) [µM] | sample concentrations provoking induction of erythrocyte lysis in viral HA assay (human erythrocytes [10]) | other results
sanggenon G [Compound 4] | 31.6 to 100 µM | 3.1 to 100 µM | 5.4 µM and 5.44 ± 3.95 µM | – | – | – | – | – | – | – | CC50 [1]: 72.9 ± 17.2 µM; IC50 ([2]; read-out: IC50 in FL assay (influenza virus A/WSN/33 NA)): 61.7 ± 17.8 µM; IC50 [3]: 8.78 ± 0.89 µM; CC50 [4]: > 100 µM; sample concentrations provoking induction of erythrocyte lysis in viral HA assay (human erythrocytes [6]; [17]): 10 to 100 µM; IC50 (influenza virus A/WSN/33): 15.2 ± 14 µM
CCC(CC)O[C@@H]1C=C(C(=O)O)C[C@H](N)[C@H]1NC(C)=O [Oseltamivir carboxylate GS4071, reference compound] | – | – | 2.08 ± 1.25 µM (≈ 0.591 µg/mL) | – | – | – | – | – | – | – | biofilm formation by scanning electron microscopy [8, 18]: did not impair biofilm formation
CC(C)=CCC/C(C)=C/Cc1c(O)ccc([C@@H]2CC(=O)c3c(O)cc(O)cc3O2)c1O [Compound 5, sanggenol A] | – | – | 31.6 µM and 31.6 ± 0.00 µM | 65.5 ± 9.29 | 42.1 ± 4.45 | 100 or no | > 100 | 35.4 ± 14.6 | – | – | viral yield in A549 cells in the presence of NanA of DSM20566 [9]: 31.8 ± 4.5%; virus yield in A549 cells in the absence of NanA [9]: 5.1 ± 1.8%; sample concentrations provoking induction of erythrocyte lysis in viral HA assay (human erythrocytes [10]; human): 100 or no; sample concentrations provoking induction of erythrocyte lysis in bacterial HA assay (human erythrocytes [5]; human): 100 µM
O=c1cc(-c2ccc(O)c(O)c2O)oc2cc(O)cc(O)c12 [Compound 14, 2',3',4',5,7-pentahydroxyflavone] | no | – | 72.6 ± 37.5 µM (≈ 21.9 µg/mL) | > 100 | > 100 | no | > 100 | > 100 | > 100 | no | –
O=C1CC(c2ccc(O)cc2O)Oc2cc(O)cc(O)c21 (stereo not drawn) [Compound 12, 2',4',5,7-tetrahydroxyflavanone] | no | – | 72.6 ± 37.5 µM (≈ 20.9 µg/mL) | 77.7 ± 5.56 | > 100 | no | > 100 | 81.3 ± 10.4 | > 100 | no | –
COc1c(CC=C(C)C)cc([C@@H]2CC(=O)c3c(O)cc(O)cc3O2)cc1CC=C(C)C [Compound 27, abyssinone-V 4'-methyl ether] | – | – | 7.72 ± 3.53 µM (≈ 3.26 µg/mL) | 33.1 ± 11.7 | 2.29 ± 0.1 | 3.16 to 100 µM | > 100 | – | – | no | viral yield in A549 cells in the presence of NanA of DSM20566 [9]: 7.4 ± 1.2%; virus yield in A549 cells in the absence of NanA [9]: 3.2 ± 1.4%; sample concentrations provoking induction of erythrocyte lysis in bacterial HA assay (human erythrocytes [5]; human): 31.6 to 100 µM; biofilm formation by scanning electron microscopy [8, 18]: completely prevented biofilm formation; also recorded: strong effect; biofilm formation by scanning electron microscopy ([8]; treatment from 6 h after inoculation): no biofilm was formed; biofilm formation by scanning electron microscopy ([8]; treatment from 9 h after inoculation): affected biofilm formation weakly; biofilm formation by scanning electron microscopy ([8]; treatment from 48 h after inoculation): had no effect
O=C1CC(c2ccc(O)c(O)c2)Oc2cc(O)cc(O)c21 (racemic) [Compound 11, (±)-eriodictyol] | no | – | 45.3 ± 30.6 µM (≈ 13.1 µg/mL) | > 100 | – | no | – | 68.4 ± 12.9 | 78.3 ± 5.72 | no | CC50 at 72 h [13]: > 100 µM; CC50 at 72 h [14]: > 100 µM
O=c1cc(-c2ccc(O)c(O)c2)oc2cc(O)cc(O)c12 [Compound 15, luteolin] | – | – | 23.0 ± 11.8 µM (≈ 6.58 µg/mL) | > 100 | – | no | – | – | – | – | CC50 at 72 h [13]: 23 ± 0.18 µM; CC50 at 72 h [14]: > 100 µM
COc1c(O)cc2c(c1O)C(=O)CC(c1ccccc1)O2 (stereo not drawn) [Compound 8, 2,3-dihydro-5,7-dihydroxy-6-methoxy-2-phenyl-4H-1-benzopyran-4-one] | no | no | – | > 100 | > 100 | – | > 100 | > 100 | > 100 | no | –
COc1cc([C@H]2Oc3cc([C@H]4Oc5cc(O)cc(O)c5C(=O)[C@@H]4O)ccc3O[C@@H]2CO)ccc1O (racemic) [Compound 17, (±)-silybin] | no | no | – | 9.18 ± 1.5 | > 100 | – | > 100 | > 100 | > 100 | no | –
sanggenon D [Compound 3] | 100 µM | no | 31.6 µM and 31.6 ± 0.00 µM | – | – | – | – | – | – | – | CC50 [15]: 99 ± 8.7 µM; sample concentrations provoking induction of erythrocyte lysis in viral HA assay (human erythrocytes [6]; [17]): 31.6 to 100 µM; CC50 [16]: 79.9 ± 11.2 µM
COc1ccc(C2CC(=O)c3c(O)cc(O)cc3O2)cc1O (racemic) [Compound 10, (±)-hesperetin] | no | – | – | > 100 | – | no | – | > 100 | > 100 | no | CC50 (in vitro [11]): > 100 µM; CC50 (in vitro [12]): > 100 µM
O=c1c(O)c(-c2ccc(O)cc2O)oc2cc(O)cc(O)c12 [Compound 16, morin] | no | – | 23.0 ± 11.8 µM (≈ 6.95 µg/mL) | 62 ± 8.03 | > 100 | no | > 100 | > 100 | 70.1 ± 9.83 | no | –
